Measured values: US20050250752A1, “Cembranoids with chemopreventive activity” (priority 2002, published 2005)

Experiments:
[1] = test system: Epstein-Barr virus early antigen (EBV-EA) of Raji cells induced by tumor promoter (TPA); experiment: Inhibition of EBV-EA activation induced by TPA in Raji cells; format: cell-based; settings: for EBV-EA induction, percentage relative to the positive control value (100%): TPA 32 pmol, Raji cells, 48 h
Method: (§1) The inhibition of EBV-EA activation was assayed using Raji cells (virus non-producer type). The indicator cells (Raji, 1×10^6/ml) were incubated at 37° C. for 48 h in 1 ml of medium containing n-butyric acid (4 mmol), TPA(12-O-tetradecanoylphorbol 13-acetate)(32 pmol=20 ng in 2 μl DMSO) as inducer and various amounts of test compounds in 5 μl DMSO. Smears were made from the cell suspension, and the activated cells, which were stained by EBV-EA positive serum from nasopharygeal carcinoma patients were detected by an indirect immunofluorescence technique. For each compound, assays were performed in triplicate. The average EBV-EA induction of the test compounds was expressed as a relative ratio to the control experiment (100%), which was carried out only with n-butyric acid plus TPA. The viability of treated Raji cells was assayed by the Trypan Blue staining method.

Raji cells = experiment: Viability of treated Raji cells (Trypan Blue staining); format: cell-based
Method: as §1

[2] = test system: papillomas (mouse skin carcinogenesis induced by DMBA/TPA); experiment: Two-stage mouse skin carcinogenesis model induced by DMBA/TPA; format: in vivo, mouse (female ICR); settings: topical 85 nm 1 hour before TPA, ICR mice
Method: In the two-stage mouse skin carcinogenesis model induced by DMBA/TPA, the animals (specific pathogen-free female ICR, 6 weeks old) were divided into 5 groups, 15 mice each. The back of each mouse was shaved with surgical clippers, and the mice were topically treated with DMBA (100 μg, 390 nmol) in acetone (0.1 ml) as an initiation treatment. For the positive control group, 1 week after initiation with DMBA, mice were promoted by the application with TPA (1 μg, 1.7 nmol) in acetone (0.1 ml) twice a week. The other four groups received a topical application of each of the sarcophine semi-synthetic derivatives (85 nm) 1 hour before application of the tumor promoter. The incidence of papillomas was observed weekly for 20 weeks. The percentage of mice bearing papillomas and the average number of papillomas per mouse were recorded.

[3] = x 1000 mol ratio/TPA (32 nmol/mL)

CC1=C2CC/C(C)=C/CC[C@]3(C)O[C@H]3CC/C(C)=C/[C@@H]2OC1=O [Compound 3, Sarcophine, reference compound]
EBV-EA induction, percentage relative to the positive control value (100%) ([1]; x 10 mol ratio/TPA): 100% | EBV-EA induction, percentage relative to the positive control value (100%) ([1]; x 100 mol ratio/TPA): 84.0% | EBV-EA induction, percentage relative to the positive control value (100%) ([1]; x 500 mol ratio/TPA): 67.5% | EBV-EA induction, percentage relative to the positive control value (100%) [1, 3]: 19.6% | viability percentage of Raji cells (indicator cells) (Raji cells; human, 48 h, 0.32 nmol/mL): > 80% | viability percentage of Raji cells (indicator cells) (Raji cells; human, 48 h, 3.2 nmol/mL): > 80% | viability percentage of Raji cells (indicator cells) (Raji cells; x 500 mol ratio/TPA): > 80% | viability percentage of Raji cells (indicator cells) (Raji cells; [3]): 60%

13S-hydroxysarcophine [Compound 4]
EBV-EA induction, percentage relative to the positive control value (100%) ([1]; x 10 mol ratio/TPA): 100% | EBV-EA induction, percentage relative to the positive control value (100%) ([1]; x 100 mol ratio/TPA): 81.3% | EBV-EA induction, percentage relative to the positive control value (100%) ([1]; x 500 mol ratio/TPA): 62.8% | EBV-EA induction, percentage relative to the positive control value (100%) [1, 3]: 14.2% | viability percentage of Raji cells (indicator cells) (Raji cells; x 10 mol ratio/TPA): > 80% | viability percentage of Raji cells (indicator cells) (Raji cells; x 100 mol ratio/TPA): > 80% | viability percentage of Raji cells (indicator cells) (Raji cells; x 500 mol ratio/TPA): > 80% | viability percentage of Raji cells (indicator cells) (Raji cells; [3]): 60%

C/C1=C\C=C(\C(C)C)[C@@H](O)C/C(C)=C/CC/C(C)=C/CC1 [Sarcophytol-A, sarcophytol A, reference compound]
inhibition of EBV-EA activation induced by TPA [1]: 88% | EBV-EA induction, percentage relative to the positive control value (100%) ([1]; x 10 mol ratio/TPA): 97.3% | EBV-EA induction, percentage relative to the positive control value (100%) ([1]; x 100 mol ratio/TPA): 79.1% | EBV-EA induction, percentage relative to the positive control value (100%) ([1]; x 500 mol ratio/TPA): 60.4% | EBV-EA induction, percentage relative to the positive control value (100%) [1, 3]: 11.7% | viability percentage of Raji cells (indicator cells) (Raji cells; x 10 mol ratio/TPA): > 80% | viability percentage of Raji cells (indicator cells) (Raji cells; x 100 mol ratio/TPA): > 80% | viability percentage of Raji cells (indicator cells) (Raji cells; x 500 mol ratio/TPA): > 80% | viability percentage of Raji cells (indicator cells) (Raji cells; [3]): 50%

C/C1=C\C=C(\C(C)(O)CO)CC(=O)/C(C)=C/CCC2(C)OC2CC1 (stereo not drawn) [Compound 14, 7,8-Epoxy-13-oxo-1,3,11-cembratriene-15R(α),16-diol]
EBV-EA induction, percentage relative to the positive control value (100%) ([1]; x 10 mol ratio/TPA): 94.0% | EBV-EA induction, percentage relative to the positive control value (100%) ([1]; x 100 mol ratio/TPA): 75.1% | EBV-EA induction, percentage relative to the positive control value (100%) ([1]; x 500 mol ratio/TPA): 56.7% | EBV-EA induction, percentage relative to the positive control value (100%) [1, 3]: 8.3% | viability percentage of Raji cells (indicator cells) (Raji cells; x 10 mol ratio/TPA): > 80% | viability percentage of Raji cells (indicator cells) (Raji cells; x 100 mol ratio/TPA): > 80% | viability percentage of Raji cells (indicator cells) (Raji cells; x 500 mol ratio/TPA): > 80% | viability percentage of Raji cells (indicator cells) (Raji cells; [3]): 60%

C/C1=C\CCC2(C)OC2CC/C(C)=C/C=C(/[C@@](C)(O)CO)CC1 (stereo partly drawn) [Compound 11, 7,8-Epoxy-1,3,11-cembratriene-15R(α),16-diol]
Papilloma Bearer (%) ([2]; week 1 of promotion): 0.0% | Papillomas/mouse ([2]; week 1 of promotion): 0.0 | Papilloma Bearer (%) ([2]; week 2 of promotion): 0.0% | Papillomas/mouse ([2]; week 2 of promotion): 0.0 | Papilloma Bearer (%) ([2]; week 3 of promotion): 0.0% | Papillomas/mouse ([2]; week 3 of promotion): 0.0 | Papilloma Bearer (%) ([2]; week 4 of promotion): 0.0% | Papillomas/mouse ([2]; week 4 of promotion): 0.0 | Papilloma Bearer (%) ([2]; week 5 of promotion): 0.0% | Papillomas/mouse ([2]; week 5 of promotion): 0.0 | Papilloma Bearer (%) ([2]; week 6 of promotion): 0.0% | Papillomas/mouse ([2]; week 6 of promotion): 0.0 | Papilloma Bearer (%) ([2]; week 7 of promotion): 0.0% | Papillomas/mouse ([2]; week 7 of promotion): 0.0 | Papilloma Bearer (%) ([2]; week 8 of promotion): 13.3% | Papillomas/mouse ([2]; week 8 of promotion): 0.6 | Papilloma Bearer (%) ([2]; week 9 of promotion): 20.0% | Papillomas/mouse ([2]; week 9 of promotion): 1.3 | Papilloma Bearer (%) ([2]; week 10 of promotion): 26.6% | Papillomas/mouse ([2]; week 10 of promotion): 1.6 | Papilloma Bearer (%) ([2]; week 11 of promotion): 40.0% | Papillomas/mouse ([2]; week 11 of promotion): 1.9 | Papilloma Bearer (%) ([2]; week 12 of promotion): 46.6% | Papillomas/mouse ([2]; week 12 of promotion): 2.1 | Papilloma Bearer (%) ([2]; week 13 of promotion): 53.3% | Papillomas/mouse ([2]; week 13 of promotion): 2.4 | Papilloma Bearer (%) ([2]; week 14 of promotion): 53.3% | Papillomas/mouse ([2]; week 14 of promotion): 2.7 | Papilloma Bearer (%) ([2]; week 15 of promotion): 60.0% | Papillomas/mouse ([2]; week 15 of promotion): 3.0 | Papilloma Bearer (%) ([2]; week 16 of promotion): 73.3% | Papillomas/mouse ([2]; week 16 of promotion): 3.4 | Papilloma Bearer (%) ([2]; week 17 of promotion): 80.0% | Papillomas/mouse ([2]; week 17 of promotion): 3.7 | Papilloma Bearer (%) ([2]; week 18 of promotion): 80.0% | Papillomas/mouse ([2]; week 18 of promotion): 4.2 | Papilloma Bearer (%) ([2]; week 19 of promotion): 86.6% | Papillomas/mouse ([2]; week 19 of promotion): 4.7 | Papilloma Bearer (%) ([2]; week 20 of promotion): 86.6% | Papillomas/mouse ([2]; week 20 of promotion): 5.1
